Laboratory results published in patent EP4763845A1, “CYANO AROMATIC RING DERIVATIVE AND PHARMACEUTICAL USE THEREOF” (Haisco Pharmaceutical Group Co., Ltd., priority 2023, dated 2025).

Columns and labels:
AR protein = molecular target: T1, AR protein (Homo sapiens, UniProt P10275); assay: Detection of AR degradation in VCaP cells (automated western blot); type: cell-based; details: degradation of AR protein in VCaP cells, 24 hours incubation; read-out: DC50
T1 construct: VCap is a human prostate cancer cell line purchased from ATCC; host or cells: VCaP human prostate cancer cells
T1 sequence (P10275 1-920): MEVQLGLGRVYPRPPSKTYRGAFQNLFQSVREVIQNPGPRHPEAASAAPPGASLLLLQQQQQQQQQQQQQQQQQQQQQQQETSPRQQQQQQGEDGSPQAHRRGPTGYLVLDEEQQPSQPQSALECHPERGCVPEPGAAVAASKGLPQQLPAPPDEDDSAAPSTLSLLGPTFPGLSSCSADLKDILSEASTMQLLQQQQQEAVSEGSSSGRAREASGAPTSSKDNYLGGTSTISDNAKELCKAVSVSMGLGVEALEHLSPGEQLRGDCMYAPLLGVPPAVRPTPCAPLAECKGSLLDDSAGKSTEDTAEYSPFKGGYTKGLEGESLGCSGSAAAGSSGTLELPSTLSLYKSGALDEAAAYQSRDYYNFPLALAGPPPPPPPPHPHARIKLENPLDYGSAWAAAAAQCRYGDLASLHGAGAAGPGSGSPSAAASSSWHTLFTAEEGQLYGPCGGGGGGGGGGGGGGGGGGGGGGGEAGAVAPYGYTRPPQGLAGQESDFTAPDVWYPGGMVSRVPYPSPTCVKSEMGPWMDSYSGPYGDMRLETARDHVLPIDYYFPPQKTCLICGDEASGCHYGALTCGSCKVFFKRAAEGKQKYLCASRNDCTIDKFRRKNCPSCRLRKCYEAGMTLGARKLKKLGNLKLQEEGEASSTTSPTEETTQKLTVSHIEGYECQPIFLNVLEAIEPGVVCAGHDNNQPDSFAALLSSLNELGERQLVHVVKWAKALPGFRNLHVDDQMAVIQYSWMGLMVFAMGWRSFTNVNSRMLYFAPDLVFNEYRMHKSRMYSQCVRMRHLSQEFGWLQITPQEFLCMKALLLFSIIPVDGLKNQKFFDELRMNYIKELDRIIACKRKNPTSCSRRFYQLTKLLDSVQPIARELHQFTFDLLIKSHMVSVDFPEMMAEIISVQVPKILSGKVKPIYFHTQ
Summary of the method: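 VCaP cells (5 × 10^5/well) were treated with compounds at various concentrations for 24 h at 37°C. Lysate AR level was quantified by automated capillary western blot, normalised to β-actin and expressed relative to solvent control. DC50 came from four-parameter nonlinear regression; degradation rate = 100 − AR%.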

[1] = tested on: Human CD34+ Hematopoietic stem cells; assay: Human CD34+ hematopoietic stem cell proliferation inhibition experiment; type: cell-based; details: 168 h, inhibitory activity against the proliferation of CD34+ hematopoietic stem cells, 7 days
Protocol: Human CD34+ Hematopoietic stem cells (TPCS, Cat.hmPB34-P-2CW) are CD34-positive stem cells obtained from human PBMCs through immunomagnetic bead sorting. The culture conditions are as follows: DPBS (Gibco, Cat.14190-144) +StemSpan SFEM II ([…], Cat.9655) +1X StemSpan CD34+ Expansion Supplement ([…], Cat.2691). First, 40 nL of DMSO, the positive reference compound Talazoparib, or the test compounds were respectively added to a 384-well plate (Corning, Cat. 3764). Then, a cell suspension was added at 400 cells per well in 40 µL of medium, resulting in final concentrations of 0.1% DMSO, 3 µM Talazoparib, or various concentrations of the compounds in each well. The plate was centrifuged at room temperature at 1000 rpm for 1 minute, followed by incubation for 7 days in a 37°C, 5% CO2 incubator. Following incubation, 20 µL of CellTiter-Glo Reagent (Promega, Cat. G7573) was directly added to each well, and the plate was centrifuged at room temperature at 1000 rpm for 1 minute, followed by incubation for 20 minutes in the dark. Following incubation, the chemiluminescent signal (CFU) was read and recorded using an Envision multimode microplate reader (PerkinElmer, Cat. 2104). The cell proliferation inhibition rate at various compound concentrations was calculated according to Equation (3), where CFUhigh control represents the average signal value of the DMSO group, CFUlow control represents the average signal value of the Talazoparib group, and CFUcompound represents the average signal value of the compound-treated group. The processed data obtained from Equation (3) were analysed using XLfit or GraphPad Prism software, and a four-parameter curve fitting model was applied to calculate the compound concentration corresponding to a 50% inhibition rate, i.e., the IC50 value. Inhibition% = (CFUhigh control−CFUcompound)/(CFUhigh control−CFUlow control) × 100% [formula]

## CC1(C)[C@H](NC(=O)c2ccc(N3CCC(CN4CCN5c6cc(F)c(C7CCC(=O)NC7=O)cc6CC[C@H]5C4)CC3)cc2)C(C)(C)[C@H]1Oc1ccc(C#N)c2ncccc12 (some centres unmarked) [Compound 31]
AR protein
  DC50: < 0.1 µM
[1]
  IC50: > 10 µM
